Assay results as given in US12643871B2, “Aryl formamide compound containing chiral sulfur oxide or salt thereof, preparation method, herbicidal composition and use thereof” (Qingdao Kingagroot Chemical Compound Co., Ltd., priority 2019, dated 2026).

What was measured:
Format in all cases: in vivo
Digitaria sanguinalis [1] = test: Comparison experiment (post-emergence) against racemate / S configuration; settings: 30 g/ha, 3-4 weeks after sowing, 4-5 leaf-stage of weed, 25DAA
Abutilon theophrasti [2] = test: as above; settings: 30 g/ha; 3-4 weeks after sowing, 4-5 leaf-stage of weed, 25DAA
Text: (§1) The above growth control rates are fresh weight control rates.
(§2) Experiment on weeding effect in post-emergence stage: monocotyledonous and dicotyledonous weed seeds (Descurainia sophia, Capsella bursa-pastoris, Galium aparine, Stellaria media, Lithospermum arvense, Rorippa indica, Alopecurus aequalis, Beckmannia syzigachne, Sclerochloa dura, Phleum paniculatum, Bromus japonicus, Aegilops tauschii, Phalaris arundinacea, Amaranthus retroflexus, Chenopodiaceae, Commelina communis, Sonchus arvensis, convolvulus arvensis, Cirsium setosum, Solanum nigrum, Acalypha australis, Digitaria sanguinalis, Echinochloa crusgalli, Setaria viridis, Setaria glauca, Leptochloa chinensis, Monochoria vaginalis, Sagittaria trifolia, Scirpus juncoides, Cyperus rotundus, Cyperus iria, Cyperus difformis, Fimbristylis, Portulaca oleracea, Xanthium sibiricum, Pharbitis nil) and major crop seeds (wheat, corn, rice, soybean, cotton, oilseed rape, millet, sorghum, potato, sesame, ricinus) were placed in plastic pots filled with soil, then covered with 0.5-2 cm of soil, allowed to grow in a good greenhouse environment. […] The tested compounds of the present invention were respectively dissolved in acetone, then added with Tween 80 and 1.5 liter/ha of emulsifiable concentrate of methyl oleate as synergist, diluted with a certain amount of water to obtain a solution with a certain concentration, and sprayed with a spray tower onto the plants. […]
(§3) If there is no clear marker, the post-seedling test conditions are the same as above, and the experimental results are shown in Tables 4-7.

Leptochloa chinensis = test: as above; settings: for Results of comparison experiment, Leptochloa chinensis (60 g/ha) / Results of comparison experiment, Leptochloa chinensis (125 g/ha): 3-4 weeks after sowing, 4-5 leaf-stage of weed; for Results of comparison experiment, Leptochloa chinensis (60 g/ha): 25DAA; for Results of comparison experiment, Leptochloa chinensis (125 g/ha): 25 DAA (Table 5)
Text: as §1, §2, §3

Green Setaria viridis = test: as above; settings: for Results of comparison experiment, Green Setaria viridis (60 g/ha): 25DAA
Text: as §1, §2, §3

Rice(Longyang 16) = test: Comparison experiment (post-emergence), crop safety on direct seeding rice; settings: for Results of comparison experiment, Rice(Longyang 16) (250 g/ha) / Results of comparison experiment, Rice(Longyang 16) (500 g/ha): 1.5-2 leaf-stage of direct seeding rice variety Longyang 16, 25 DAA
Text: as §1
(§4) Experiment on weeding effect in post-emergence stage: monocotyledonous and dicotyledonous weed seeds (Descurainia sophia, Capsella bursa-pastoris, Galium aparine, Stellaria media, Lithospermum arvense, Rorippa indica, Alopecurus aequalis, Beckmannia syzigachne, Sclerochloa dura, Phleum paniculatum, Bromus japonicus, Aegilops tauschii, Phalaris arundinacea, Amaranthus retroflexus, Chenopodiaceae, Commelina communis, Sonchus arvensis, convolvulus arvensis, Cirsium setosum, Solanum nigrum, Acalypha australis, Digitaria sanguinalis, Echinochloa crusgalli, Setaria viridis, Setaria glauca, Leptochloa chinensis, Monochoria vaginalis, Sagittaria trifolia, Scirpus juncoides, Cyperus rotundus, Cyperus iria, Cyperus difformis, Fimbristylis, Portulaca oleracea, Xanthium sibiricum, Pharbitis nil) and major crop seeds (wheat, corn, rice, soybean, cotton, oilseed rape, millet, sorghum, potato, sesame, ricinus) were placed in plastic pots filled with soil, then covered with 0.5-2 cm of soil, allowed to grow in a good greenhouse environment. After 2 weeks of sowing, the test plants were treated in the 2 leaf stage. The tested compounds of the present invention were respectively dissolved in acetone, then added with Tween 80 and 1.5 liter/ha of emulsifiable concentrate of methyl oleate as synergist, diluted with a certain amount of water to obtain a solution with a certain concentration, and sprayed with a spray tower onto the plants. After the application, the plants were cultured for 15 days in the greenhouse, and then the experimental results of the weeding were counted. The doses of the used compounds were 500, 250, 125, 60, 30, 15 g/ha, and the averages were obtained by repeating for three times.
as §3
Longyang 16 is an important cultivated variety representative of long-grain fragrant rice in northeast China. Long-grain fragrant rice is sensitive to herbicides and prone to drug damage, especially HPPD herbicides such as mesotrione and benzobicylon. […] It was not consistent with the well-known structure-activity relationship that aryloxyphenoxypropionic acid herbicides and phenoxypropionic acid herbicides in effective form have high activity to weeds and heavy damage to crops, and in ineffective form have almost no activity.

Amaranthus retroflexus = test: Weeding effect in post-emergence stage; settings: 250 g/ha; 2 leaf stage; 15 days after application; fresh weight control rate
Summary of the method: (§5)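 Two-leaf-stage pot plants, spray-tower application at 500/250/125/60/30/15 g/ha with methyl oleate EC synergist; fresh weight control level (0–5) read at 15 days post-treatment, three replicates averaged.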

Setaria viridis = test: Weeding effect in post-emergence stage; settings: 250 g/ha; 2 leaf stage; 15 days after application; fresh weight control rate
Summary of the method: as §5

Digitaria sanguinalis [3] = test: Weeding effect in post-emergence stage; settings: 250 g/ha; 2 leaf stage; 15 days after application; fresh weight control rate
Summary of the method: as §5

Abutilon theophrasti [4] = test: Weeding effect in post-emergence stage; settings: 250 g/ha; 2 leaf stage; 15 days after application; fresh weight control rate
Summary of the method: as §5

Echinochloa crusgali = test: Weeding effect in post-emergence stage; settings: 250 g/ha; 2 leaf stage; 15 days after application; fresh weight control rate
Summary of the method: as §5

Digitaria sanguinalis [5] = test: Comparison experiment (post-emergence) against racemate / S configuration; settings: Table 6, post-seedling test conditions; for pest or weed control at 30 g/ha: Digitaria sanguinalis, post-emergence
Text: as §1, §4, §3

Alopecurus japonicas = test: as above; settings: Table 6, post-seedling test conditions
Text: as §1, §4, §3

rice and other crops = test: Comparison experiment (post-emergence, Tables 4-7), crop safety; settings: dose of 125, 60, 30, 15 g/ha
Text: as §1, §4, §3

[6] = test system: key weeds such as Digitaria sanguinalis, Leptochloa chinensis; test: Comparison experiment (post-emergence, Tables 4-7), herbicidal activity on weeds not listed separately; settings: dose of 125, 60, 30, 15 g/ha
Summary of the method: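 Compounds are applied post-emergence by spray tower to plants at the 2 leaf stage, at rates from 15 to 500 g/ha with a methyl oleate synergist. Control is expressed on fresh weight, counted after 15 days in the greenhouse and averaged across three repetitions.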

[7] = 3-4 weeks after sowing, 4-5 leaf-stage of weed, 25 DAA (Table 5)
[8] = 3-4 weeks after sowing, 4-5 leaf-stage of weed
[9] = Table 6, post-seedling test conditions

Compound	Results of comparison experiment, Digitaria sanguinalis (30 g/ha) (Digitaria sanguinalis [1]) [%]	Results of comparison experiment, Abutilon theophrasti (30 g/ha) (Abutilon theophrasti [2]) [%]	Results of comparison experiment, Leptochloa chinensis (60 g/ha) (Leptochloa chinensis) [%]	Results of comparison experiment, Green Setaria viridis (60 g/ha) (Green Setaria viridis; [8]) [%]	Results of comparison experiment, Green Setaria viridis (30 g/ha) (Green Setaria viridis; [9]) [%]	Results of comparison experiment, Digitaria sanguinalis (30 g/ha) (Digitaria sanguinalis [5]) [%]	Results of comparison experiment, Alopecurus japonicas (120 g/ha) (Alopecurus japonicas) [%]	pest or weed control at 30 g/ha (Digitaria sanguinalis [5]) [%]	further results
CCC[S+]([O-])c1c(C(F)(F)F)ccc(C(=O)Nc2nnc(C)o2)c1F (single isomer, unassigned) [Control Compound A]	0	0	0	15					Results of comparison experiment, Leptochloa chinensis (125 g/ha) (Leptochloa chinensis): 10%; activity against key weeds such as Leptochloa chinensis, in words (Leptochloa chinensis; summary of Table 5): lower activity; Results of comparison experiment, Green Setaria viridis (30 g/ha) (Green Setaria viridis; [7]): 0%; Results of comparison experiment, Rice(Longyang 16) (250 g/ha) (Rice(Longyang 16)): 15%; Results of comparison experiment, Rice(Longyang 16) (500 g/ha) (Rice(Longyang 16)): 25%; safety to rice (Longyang 16), in words (Rice(Longyang 16); summary of Table 5): not safe
CCC[S+]([O-])c1c(C(F)(F)F)ccc(C(=O)Nc2nnc(C)o2)c1F (single isomer, unassigned) [Control Compound B]	80	90	30	90					Results of comparison experiment, Leptochloa chinensis (125 g/ha) (Leptochloa chinensis): 80%; Results of comparison experiment, Green Setaria viridis (30 g/ha) (Green Setaria viridis; [7]): 10%; Results of comparison experiment, Rice(Longyang 16) (250 g/ha) (Rice(Longyang 16)): 5%; Results of comparison experiment, Rice(Longyang 16) (500 g/ha) (Rice(Longyang 16)): 15%
Cc1nnc(NC(=O)c2ccc(C(F)(F)F)c([S@@+](C)[O-])c2F)o1 [Compound 1]	90	100	70	80					weeding effect in post-emergence stage, activity level (growth control rate), Amaranthus retroflexus (Amaranthus retroflexus): 5 (Level 5: growth control rate is above 85%); weeding effect in post-emergence stage, activity level (growth control rate), Setaria viridis (Setaria viridis): 3 (Level 3: growth control rate is greater than or equal to 40% and less than 60%); weeding effect in post-emergence stage, activity level (growth control rate), Digitaria sanguinalis (Digitaria sanguinalis [3]): 3 (Level 3: growth control rate is greater than or equal to 40% and less than 60%); weeding effect in post-emergence stage, activity level (growth control rate), Abutilon theophrasti (Abutilon theophrasti [4]): 5 (Level 5: growth control rate is above 85%); weeding effect in post-emergence stage, activity level (growth control rate), Echinochloa crusgali (Echinochloa crusgali): 5 (Level 5: growth control rate is above 85%)
CSc1c(C(=O)Nc2nnc(C)o2)ccc(C(F)(F)F)c1[S@@+](C)[O-] [Compound 547]					80	90	40		
CCC[S@@+]([O-])c1c(C(F)F)ccc(C(=O)Nc2nnc(C)o2)c1F [Compound 637]		100	90	100					safety to rice and other crops compared with the corresponding racemate or S configuration (rice and other crops): higher safety; pest or weed control at 30 g/ha (Digitaria sanguinalis [1]; Digitaria sanguinalis, post-emergence, 600 h): 100%; activity to key weeds such as Digitaria sanguinalis, Leptochloa chinensis compared with the corresponding racemate or S configuration [6]: better activity; weeding effect in post-emergence stage, activity level (growth control rate), Amaranthus retroflexus (Amaranthus retroflexus): 5 (Level 5: growth control rate is above 85%); weeding effect in post-emergence stage, activity level (growth control rate), Setaria viridis (Setaria viridis): 5 (Level 5: growth control rate is above 85%); weeding effect in post-emergence stage, activity level (growth control rate), Digitaria sanguinalis (Digitaria sanguinalis [3]): 5 (Level 5: growth control rate is above 85%); weeding effect in post-emergence stage, activity level (growth control rate), Abutilon theophrasti (Abutilon theophrasti [4]): 5 (Level 5: growth control rate is above 85%); weeding effect in post-emergence stage, activity level (growth control rate), Echinochloa crusgali (Echinochloa crusgali): 5 (Level 5: growth control rate is above 85%)
CC[S+]([O-])c1c(C(F)(F)F)ccc(C(=O)Nc2nnc(C)o2)c1SC (centres unmarked) [Control Compound B′]					30		0	30	
CCS(=O)(=O)c1c(C(F)(F)F)ccc(C(=O)Nc2nnc(C)o2)c1SC [Control Compound C′]					80		20	10	
CCSc1c(C(F)(F)F)ccc(C(=O)Nc2nnc(C)o2)c1SC [Control Compound D′]					20		0	20	
CSc1c(C(=O)Nc2nnc(C)o2)ccc(C(F)(F)F)c1[S+](C)[O-] (centres unmarked) [Control Compound E′]					40	40	15		
CSc1c(C(=O)Nc2nnc(C)o2)ccc(C(F)(F)F)c1[S+](C)[O-] (centres unmarked) [Control Compound F′]					5	0	0		
